In US20220128542A1, “TREATMENT EFFICIENCY EVALUATION” (TX MEDIC AB, priority 2019, published 2022):

Test system: brain of rats subjected to severe traumatic brain injury (sTBI)
Test: Ingenuity pathway analysis of differentially regulated genes after sTBI (canonical pathways, diseases and molecular functions; Example 4)
Design: species or system rat
Conditions: 2 days after TBI
Protocol: Pathway analysis of the differentially regulated genes was carried out using the Ingenuity pathway analysis package. The analysis was performed with special reference to pathways and molecular processes and diseases associated with neurodegenerative disease, including dementia, Alzheimer's disease, ALS, TBI and stroke, and with scarring and fibrosis, including glaucoma and normal pressure hydrocephalus (NPH) after subarachnoid haemorrhage.

[1] = TBI + 1 mg/kg LMW-DS relative to control

**Q.** Which “Abdominal cancer (disease/function), z score” value (TBI + 1 mg/kg LMW-DS) does the source give for sodium salt of dextran sulfate [LMW-DS] here?
**A.** −1.538

**Q.** And the “Abdominal carcinoma (disease/function), z score” value (TBI + 1 mg/kg LMW-DS)?
**A.** −1.715

**Q.** And the “Abdominal neoplasm (disease/function), z score” value (TBI + 1 mg/kg LMW-DS)?
**A.** −0.154

**Q.** What about the “Activation of blood cells (disease/function), z score” value (TBI + 1 mg/kg LMW-DS) of the same substance?
**A.** 0.086

**Q.** And the “Activation of cells (disease/function), z score” value (TBI + 1 mg/kg LMW-DS)?
**A.** 0.836

**Q.** And the “Activation of leukocytes (disease/function), z score” value (TBI + 1 mg/kg LMW-DS)?
**A.** 0.086

**Q.** What about the “Activation of lymphocytes (disease/function), z score” value (TBI + 1 mg/kg LMW-DS) of the same substance?
**A.** −1.158

**Q.** What about the “Adhesion of tumor cell lines (disease/function), z score” value (TBI + 1 mg/kg LMW-DS) of the same substance?
**A.** 2.074

**Q.** What about the “Apoptosis (disease/function), z score” value (TBI + 1 mg/kg LMW-DS) of the same substance?
**A.** −0.337

**Q.** And the “Apoptosis of muscle cells (disease/function), z score” value (TBI + 1 mg/kg LMW-DS)?
**A.** 0.041

**Q.** And the “Behavior (disease/function), z score” value (TBI + 1 mg/kg LMW-DS)?
**A.** 1.334

**Q.** And the “Binding of tumor cell lines (disease/function), z score” value (TBI + 1 mg/kg LMW-DS)?
**A.** 2.397

**Q.** And the “Carcinoma (disease/function), z score” value (TBI + 1 mg/kg LMW-DS)?
**A.** −0.127

**Q.** And the “Cell death (disease/function), z score” value (TBI + 1 mg/kg LMW-DS)?
**A.** −0.793

**Q.** What about the “Cell death of blood cells (disease/function), z score” value (TBI + 1 mg/kg LMW-DS) of the same substance?
**A.** 1.082

**Q.** And the “Cell death of immune cells (disease/function), z score” value (TBI + 1 mg/kg LMW-DS)?
**A.** 1.001

**Q.** And the “Cell movement (disease/function), z score” value (TBI + 1 mg/kg LMW-DS)?
**A.** 1.948

**Q.** What about the “Cell movement of muscle cells (disease/function), z score” value (TBI + 1 mg/kg LMW-DS) of the same substance?
**A.** −0.26

**Q.** And the “Cell movement of vascular smooth muscle cells (disease/function), z score” value (TBI + 1 mg/kg LMW-DS)?
**A.** −0.588

**Q.** And the “Cell proliferation of T lymphocytes (disease/function), z score” value (TBI + 1 mg/kg LMW-DS)?
**A.** −1.097

**Q.** What about the “Cellular homeostasis (disease/function), z score” value (TBI + 1 mg/kg LMW-DS) of the same substance?
**A.** 0.19

**Q.** And the “Development of connective tissue cells (disease/function), z score” value (TBI + 1 mg/kg LMW-DS)?
**A.** −0.332

**Q.** What about the “Differentiation of bone cells (disease/function), z score” value (TBI + 1 mg/kg LMW-DS) of the same substance?
**A.** −0.341

**Q.** And the “Differentiation of connective tissue cells (disease/function), z score” value (TBI + 1 mg/kg LMW-DS)?
**A.** 0.73

**Q.** What about the “Differentiation of hematopoietic progenitor cells (disease/function), z score” value (TBI + 1 mg/kg LMW-DS) of the same substance?
**A.** 0.487

**Q.** What about the “Differentiation of osteoclasts (disease/function), z score” value (TBI + 1 mg/kg LMW-DS) of the same substance?
**A.** −0.223

**Q.** What about the “Digestive organ tumor (disease/function), z score” value (TBI + 1 mg/kg LMW-DS) of the same substance?
**A.** −0.604

**Q.** And the “Experimentally-induced arthritis (disease/function), z score” value (TBI + 1 mg/kg LMW-DS)?
**A.** −0.816

**Q.** What about the “Extracranial solid tumor (disease/function), z score” value (TBI + 1 mg/kg LMW-DS) of the same substance?
**A.** 0.056

**Q.** What about the “Genital tumor (disease/function), z score” value (TBI + 1 mg/kg LMW-DS) of the same substance?
**A.** 0.13

**Q.** And the “IL-1 Signaling canonical pathway, effect” value (TBI + 1 mg/kg LMW-DS)?
**A.** Inhibited

**Q.** What about the “Incidence of tumor (disease/function), z score” value (TBI + 1 mg/kg LMW-DS) of the same substance?
**A.** −1.131

**Q.** And the “Inflammation of absolute anatomical region (disease/function), z score” value (TBI + 1 mg/kg LMW-DS)?
**A.** −1.359

**Q.** What about the “Inflammation of body cavity (disease/function), z score” value (TBI + 1 mg/kg LMW-DS) of the same substance?
**A.** −1.757

**Q.** What about the “Inflammation of joint (disease/function), z score” value (TBI + 1 mg/kg LMW-DS) of the same substance?
**A.** −0.053

**Q.** And the “Inflammation of organ (disease/function), z score” value (TBI + 1 mg/kg LMW-DS)?
**A.** −1.295

**Q.** And the “Inflammatory response (disease/function), z score” value (TBI + 1 mg/kg LMW-DS)?
**A.** 1.159

**Q.** What about the “Interaction of mononuclear leukocytes (disease/function), z score” value (TBI + 1 mg/kg LMW-DS) of the same substance?
**A.** 1.626

**Q.** And the “Leukocyte migration (disease/function), z score” value (TBI + 1 mg/kg LMW-DS)?
**A.** 1.296

**Q.** And the “Leukopoiesis (disease/function), z score” value (TBI + 1 mg/kg LMW-DS)?
**A.** 1.185

**Q.** And the “Lymphopoiesis (disease/function), z score” value (TBI + 1 mg/kg LMW-DS)?
**A.** 0.583

**Q.** And the “Malignant solid tumor (disease/function), z score” value (TBI + 1 mg/kg LMW-DS)?
**A.** −0.562

**Q.** And the “Migration of cells (disease/function), z score” value (TBI + 1 mg/kg LMW-DS)?
**A.** 2.093

**Q.** And the “Necrosis (disease/function), z score” value (TBI + 1 mg/kg LMW-DS)?
**A.** −0.361

**Q.** And the “Non-hematologic malignant neoplasm (disease/function), z score” value (TBI + 1 mg/kg LMW-DS)?
**A.** −0.243

**Q.** And the “Osteoarthritis Pathway canonical pathway, effect” value (TBI + 1 mg/kg LMW-DS)?
**A.** Inhibited

**Q.** What about the “Pelvic tumor (disease/function), z score” value (TBI + 1 mg/kg LMW-DS) of the same substance?
**A.** −0.651

**Q.** And the “Proliferation of blood cells (disease/function), z score” value (TBI + 1 mg/kg LMW-DS)?
**A.** −1.083

**Q.** What about the “Proliferation of lymphatic system cells (disease/function), z score” value (TBI + 1 mg/kg LMW-DS) of the same substance?
**A.** −1.112

**Q.** What about the “Proliferation of lymphocytes (disease/function), z score” value (TBI + 1 mg/kg LMW-DS) of the same substance?
**A.** −0.852

**Q.** What about the “Quantity of blood cells (disease/function), z score” value (TBI + 1 mg/kg LMW-DS) of the same substance?
**A.** −1.479

**Q.** What about the “Quantity of bone (disease/function), z score” value (TBI + 1 mg/kg LMW-DS) of the same substance?
**A.** −1.985

**Q.** And the “Quantity of cells (disease/function), z score” value (TBI + 1 mg/kg LMW-DS)?
**A.** −0.765

**Q.** What about the “Quantity of connective tissue cells (disease/function), z score” value (TBI + 1 mg/kg LMW-DS) of the same substance?
**A.** 0.637

**Q.** And the “Quantity of leukocytes (disease/function), z score” value (TBI + 1 mg/kg LMW-DS)?
**A.** −1.163

**Q.** And the “Quantity of lymphatic system cells (disease/function), z score” value (TBI + 1 mg/kg LMW-DS)?
**A.** −0.701

**Q.** And the “Quantity of phagocytes (disease/function), z score” value (TBI + 1 mg/kg LMW-DS)?
**A.** −2.061

**Q.** And the “Rheumatic Disease (disease/function), z score” value (TBI + 1 mg/kg LMW-DS)?
**A.** −0.053

**Q.** And the “Role of NFAT in Regulation of the Immune Response canonical pathway, effect” value (TBI + 1 mg/kg LMW-DS)?
**A.** Activated

**Q.** And the “Solid tumor (disease/function), z score” value (TBI + 1 mg/kg LMW-DS)?
**A.** −0.186

**Q.** And the “Survival of organism (disease/function), z score” value (TBI + 1 mg/kg LMW-DS)?
**A.** −0.095

**Q.** What about the “Synthesis of hormone (disease/function), z score” value (TBI + 1 mg/kg LMW-DS) of the same substance?
**A.** 0.977

**Q.** What about the “Thrombus (disease/function), z score” value (TBI + 1 mg/kg LMW-DS) of the same substance?
**A.** 1

**Q.** And the “Transcription of RNA (disease/function), z score” value (TBI + 1 mg/kg LMW-DS)?
**A.** 1.519

**Q.** And the “Transport of molecule (disease/function), z score” value (TBI + 1 mg/kg LMW-DS)?
**A.** 2.421

**Q.** What about the “IL-1 Signaling canonical pathway, z score” value [1] of the same substance?
**A.** −1

**Q.** What about the “Osteoarthritis Pathway canonical pathway, z score” value [1] of the same substance?
**A.** −1.342

**Q.** And the “Role of NFAT in Regulation of the Immune Response canonical pathway, z score” value [1]?
**A.** 0.378

**Q.** What about the “Abdominal cancer (disease/function), z score” value (TBI + 5 mg/kg LMW-DS) of the same substance?
**A.** −2.553

**Q.** And the “Abdominal carcinoma (disease/function), z score” value (TBI + 5 mg/kg LMW-DS)?
**A.** −2.631

**Q.** And the “Abdominal neoplasm (disease/function), z score” value (TBI + 5 mg/kg LMW-DS)?
**A.** −0.927

**Q.** What about the “Adrenomedullin Signaling pathway canonical pathway, effect” value (TBI + 5 mg/kg LMW-DS) of the same substance?
**A.** Inhibited
